The nature of series [1]: physchem. Conditions: octanol/aqueous phase.
Description: Octanol-aqueous phase partition coefficient, log P of the compound
Series [2] is described as follows: physchem. Conditions: pH 6.8.
Description: Dissociation constant, pKa of the compound at pH 6.8
Series [3] can be described thus: physchem. Conditions: octanol/aqueous phase. This is another data set of the same source.
Description: (§1) Octanol-aqueous phase distribution coefficient, log D of the compound
Another series deals with Colon. Put plainly: Drug absorption in anesthetized rat colon at pH 6.8. It counts as ADME, tissue-based. Conditions: in vivo.
Series [4] in a line: physchem.
Description: Dissociation constant, pKa of the compound
Series [5] in a line: physchem. Conditions: pH 7.8.
Description: Dissociation constant, pKa of the compound at pH 7.8
Series [6] can be described thus: physchem. To be noted: octanol/water.
Description: Octanol-water partition coefficient, log P of the compound
Another series relates to Neuron. Put plainly: Increase in membrane potential in mollusc neurons assessed as conductance of potassium at pH 7.8 relative to salicylic acid. The series is classed as functional, Mollusca.
The conditions of series [7]: octanol/water.
Description: as §1
A further series has as its system Small intestine. Description: Drug absorption in rat small intestine. To be noted: in vivo. It counts as ADME, tissue-based.

Usually logP stands for the decadic logarithm of the partition coefficient of the neutral form, usually between octanol and water. Read a low logP as a more hydrophilic compound. As usually defined, the pKa is the pH at which an ionisable group is half protonated. The low end stands for a group that gives up its proton readily, the high end for a group that holds its proton tightly. As a reminder, the logD is the decadic logarithm of the distribution of all forms, ionised or not, between an organic phase and buffer at a given pH. Low values mean a more hydrophilic compound, high ones a more lipophilic compound. As for `CCCC(C)C1(CC)C(=O)NC(=S)NC1=O` (stereo not drawn) [THIOPENTAL], the lipophilicity (logP) in “physchem [1]” was found to be 2.5. Further, in the series “physchem [2]”, the pKa stood at 0.8. Further, the logD in “physchem [3]” amounted to 2.44. In addition, in the series on Colon, the log%Abs stood at 1.7.

As for `O=C(O)c1cc(Cl)ccc1O` [5-CHLOROSALICYLIC ACID], the pKa in the series “physchem [4]” came to 2.63; in the series “physchem [5]”, 5.17. The pH-dependent lipophilicity (logD) in the series “physchem [3]” was -2.15. In addition, the logP in the series “physchem [6]” is 3.02. Also, the “fold change (FC)” value with Neuron came out at 1.

Regarding `O=C(O)c1ccc(O)cc1O` [2,4-DIHYDROXYBENZOIC ACID], in “physchem [4]”, the pKa amounted to 4.7. The pH-dependent lipophilicity (logD) in “physchem [3]” was -1.5. In the series “physchem [6]”, this molecule came in with a logP of 1.6. Also, the “fold change (FC)” value with Neuron is -1.

In turn, `O=C(O)c1cccc([N+](=O)[O-])c1` had a logD in series [7] of -2.5. For the same molecule, the logP in “physchem [1]” and in the series “physchem [6]” was 1.83 in each case. In addition, the pKa in the series “physchem [4]” amounted to 3.47; in “physchem [5]”, 4.33; in the series “physchem [2]”, 3.4. The molecule further yielded a log%Abs with Colon of 1. Further, the “fold change (FC)” value in the series with Neuron was -0.7.

Take `O=C(O)c1cc(Br)cc(Br)c1O`: the pKa in the series “physchem [4]” was 2.26; in “physchem [5]” it was 5.54. In addition, the logD in “physchem [3]” is -1.33. In addition, the logP in the series “physchem [6]” is 4.21. The “fold change (FC)” value in the series with Neuron is 1.6.

Consider `O=C(O)c1cc([N+](=O)[O-])ccc1O`, for which the lipophilicity (logP) in the series “physchem [1]” is 1.98; in the series “physchem [6]”, 2.21. Moreover, the results for the pKa in the series “physchem [4]”, in “physchem [5]” and in “physchem [2]” were 2.32, 5.48 and 4.5, respectively. Further, the pH-dependent lipophilicity (logD) in “physchem [3]” was -3.27. The same molecule came in with a log%Abs with Colon of 0.3. The “fold change (FC)” value in the series with Neuron was determined as 0.

`O=C(O)c1cccc(I)c1` gave a logD in [7] of -0.67. In “physchem [4]”, this molecule gave a pKa of 4. In addition, in the series “physchem [6]”, the log partition coefficient (logP) was 3.13. Moreover, the “fold change (FC)” value with Neuron is 0.6.

Turning to `O=[N+]([O-])c1cccc(O)c1` [3-NITRO-PHENOL], the logP in “physchem [1]” was determined as 2. Besides, the pKa in the series “physchem [2]” was found to be 1.4. In the series “physchem [3]”, this molecule came in with a logD of 2. This molecule registered a log%Abs with Colon of 1.64.

Turning to `O=C(O)c1cc(Br)ccc1O`, the pKa in “physchem [4]” came out at 2.62; in “physchem [5]” it was 5.18. Moreover, the logD in the series “physchem [3]” was -1.97. Further, the logP in the series “physchem [6]” is 3.21. Moreover, the “fold change (FC)” value in the series on Neuron came out at 1.23.

In series [7], `O=C(O)c1cccc(Br)c1` showed a logD of -1.1. Further, the pKa in the series “physchem [5]” worked out at 3.94. Besides, the lipophilicity (logP) in “physchem [6]” was determined as 2.84. In the series with Neuron, the “fold change (FC)” value stood at 0.48.

In turn, `O=C(O)c1ccccc1O` [SALICYLIC ACID] came in with a logD in series [7] of -2.62. Besides, the log partition coefficient (logP) in the series “physchem [6]” is 2.21. The log%Abs in the series on Colon was 1.08.

As to `O=C(O)c1cccc(Cl)c1`, in series [7], the pH-dependent lipophilicity (logD) was -1.3. Also, in the series “physchem [5]”, the pKa stood at 3.98. The molecule also showed a logP in “physchem [6]” of 2.68. Moreover, the “fold change (FC)” value in the series with Neuron stood at 0.18.

Molecule `Cc1ccc(C(=O)O)cc1` [4-METHYLBENZOIC ACID] yielded a logD in series [7] of -2.09. In the series “physchem [5]”, the pKa came out at 3.44.

With `O=C(O)c1c(O)cccc1O`, the pKa in “physchem [4]” was determined as 2.7; in the series “physchem [5]”, 5.1. Further, the logD in “physchem [3]” was -2.9. In the series “physchem [6]”, this molecule came in with a logP of 2.2. Besides, the “fold change (FC)” value in the series with Neuron amounted to 0.18.

In series [7], `O=C(O)c1ccccc1Cl` gave a logD of -2.9. For the same molecule, the pKa in “physchem [5]” worked out at 4.88. Moreover, the log partition coefficient (logP) in the series “physchem [6]” amounted to 1.98. In addition, the “fold change (FC)” value in the series on Neuron is -0.7.

For `O=C(O)c1cc(I)cc(I)c1O`, the values for the pKa in the series “physchem [4]” and in “physchem [5]” were 2.33 and 5.47, respectively. The pH-dependent lipophilicity (logD) in the series “physchem [3]” is -0.69. This molecule also returned a lipophilicity (logP) in the series “physchem [6]” of 4.78. For the same molecule, the “fold change (FC)” value with Neuron is listed as 2.

Take `CN[C@@H](C)[C@H](O)c1ccccc1` [EPHEDRINE]: the log%Abs in the series on Small intestine is on record as 0.85; in the series with Colon it was 0.95.

Molecule `O=C(O)c1cc([N+](=O)[O-])cc([N+](=O)[O-])c1O` [3,5-DINITROSALICYLIC ACID] showed a logD in series [7] of -4.04. For the same molecule, the values for the pKa in “physchem [4]” and in “physchem [5]” were 1.55 and 6.25, respectively. Besides, the log partition coefficient (logP) in the series “physchem [6]” was 2.21. Further, in the series with Neuron, the “fold change (FC)” value turned out to be 0.

For `Oc1ccccc1` [PHENOL], in the series with Colon, the log%Abs was found to be 1.55.

As for `O=C(O)c1ccc(I)cc1`, the logD in series [7] is on record as -0.87. For the same molecule, the pKa in the series “physchem [4]” came out at 3.91; in “physchem [5]”, 3.89. Further, the log partition coefficient (logP) in “physchem [6]” was determined as 3.02. The “fold change (FC)” value with Neuron is reported as 0.54.

With `CCCCC1C(=O)N(c2ccccc2)N(c2ccccc2)C1=O` [PHENYLBUTAZONE], the log%Abs in the series on Colon stood at 1.58.

For `O=C(O)c1ccccc1` [BENZOIC ACID], in the series on Colon, the log%Abs was 1.28.

Consider `O=C(O)c1ccc(Cl)c(Cl)c1`, for which the log distribution coefficient (logD) in series [7] is reported as -0.68. The pKa in “physchem [4]” was 3.66; in “physchem [5]”, 4.14. For the same molecule, in the series “physchem [6]”, the log partition coefficient (logP) turned out to be 3.46. The “fold change (FC)” value in the series on Neuron was determined as 0.93.

Consider `Nc1ccccc1` [ANILINE], for which the log%Abs in the series on Small intestine came to 1.73; with Colon, 1.64. The molecule also showed a log distribution coefficient (logD) in “physchem [3]” of 0.82.

Regarding `C=C[C@H]1C[N@@]2CC[C@H]1C[C@H]2[C@H](O)c1ccnc2ccc(OC)cc12` [QUININE], the log%Abs stood at 1.18 in the series with Small intestine and 1.3 in the series with Colon.

Consider `O=[N+]([O-])c1ccccc1O` [NITROPHENOLATE], for which the logP in the series “physchem [1]” came out at 1.79. The same molecule returned a pKa in “physchem [2]” of 0.2. The pH-dependent lipophilicity (logD) in the series “physchem [3]” was found to be 1.58. In the series with Colon, this molecule came in with a log%Abs of 1.74.

Consider `O=C(O)c1ccc([N+](=O)[O-])cc1` [4-NITROBENZOIC ACID], for which, in series [7], the pH-dependent lipophilicity (logD) is -2.5. The pKa in the series “physchem [4]” is 3.41; in the series “physchem [5]”, 4.39. The same molecule returned a logP in “physchem [6]” of 1.89. Besides, the “fold change (FC)” value in the series on Neuron is -0.52.

As to `COc1ccc(O)c(C(=O)O)c1`, the pKa is 2.86 in the series “physchem [4]” and 4.94 in the series “physchem [5]”. The same molecule gave a logD in the series “physchem [3]” of -2.53. In the series “physchem [6]”, this molecule yielded a logP of 2.41. The “fold change (FC)” value in the series on Neuron was 0.18.

`Cn1c(=O)c2[nH]cnc2n(C)c1=O.O` [THEOPHYLLINE] registered a log partition coefficient (logP) in “physchem [1]” of -0.78. The log%Abs in the series on Small intestine turned out to be 1.46. For the same molecule, in “physchem [3]”, the logD is -0.78.

As to `O=C(O)c1cc(I)ccc1O`, the pKa in “physchem [4]” was 2.65; in “physchem [5]”, 5.15. This molecule returned a logD in the series “physchem [3]” of -1.63. Moreover, the logP in “physchem [6]” stood at 3.52. Besides, in the series with Neuron, the “fold change (FC)” value is listed as 1.43.

The molecule `O=C(O)c1ccc(Br)cc1` came in with a log distribution coefficient (logD) in series [7] of -0.96. Further, the pKa in “physchem [4]” was 3.98; in “physchem [5]”, 3.82. For the same molecule, in “physchem [6]”, the log partition coefficient (logP) is 2.86. In addition, the “fold change (FC)” value in the series with Neuron turned out to be 0.4.

On to `Nc1ccc([N+](=O)[O-])cc1` [4-NITROANILINE], for which the log%Abs with Small intestine is recorded as 1.83; with Colon, 1.7.

In [7], `O=C(O)c1cccc(O)c1` [3-HYDROXYBENZOIC ACID] displayed a logD of -2.24. Moreover, in “physchem [5]”, the pKa was 3.74. This molecule yielded a logP in “physchem [6]” of 1.5. In addition, the “fold change (FC)” value with Neuron was -1.

In “physchem [5]”, `O=C(O)c1cc(O)ccc1O` [GENTISIC ACID] had a pKa of 4.83. Also, the “fold change (FC)” value in the series with Neuron is given as -0.7.

Regarding `CCC(=O)c1ccc(O)cc1` [PAROXYPROPIONE], in the series “physchem [1]”, the logP was determined as 1.85. The pKa in “physchem [2]” stood at 1. In “physchem [3]”, this molecule yielded a logD of 1.81. The molecule further showed a log%Abs in the series with Colon of 1.66.

The values above are taken from ChEMBL document CHEMBL3272293, “Use of distribution coefficients in quantitative structure-activity relationships” (J Med Chem, 1977).
